In patent US20020110808A1, “Toxicant-induced differential gene expression” (priority 2000, published 2002):

Key:
HepG2 cells [1] = assay: Differential display PCR (DD-PCR) of mRNA from treated cells; format: cell-based, human; conditions: visual inspection, not confirmed
Experimental: For each reverse transcription reaction, 50 ng of mRNA was incubated with a 3′ Anchored Primer (1 μM) at 65° C. for 5 minutes. The tubes were chilled and spun briefly. […] The final volume was 20 μl. Tubes were heated to 25° C. for 10 min, 42° C. for 60 min, and 70° C. for 15 min. The cDNA produced was either used immediately or stored at −20° C.
The DD-PCR was performed under the conditions recommended by Genomyx Corporation: 95° C. for 2 min; 4 cycles of 92° C. for 15 sec, 46° C. for 30 sec, 72° C. for 2 min; 25 cycles of 92° C. for 15 sec, 60° C. for 30 sec, 72° C. for 2 min; and one cycle of 72° C. for 7 min, followed by cooling at 4° C.
Stop solution (11 μl) was added to each reaction. The tubes were then heated for 2 min at 95° C. A 3-μl aliquot of each reaction was run on a 4.5% denaturing polyacrylamide gel for 16 hours at 800 V, 50° C. Under these conditions, bands ranging from 300 to 1200 base-pairs were well-resolved. Band excision and reamplification were performed according to the instructions given in the Genomyx Corporation protocol. The reamplification reaction mixture was added directly to the excised band and the PCRs were performed under the same conditions as the original DD-PCR, with the exceptions that the M13R(−48) and T7 primers (SEQ ID NO: 3 AND SEQ ID NO: 2, respectively) were used instead of the original anchored and arbitrary primers and [α-^33P]dATP was omitted. The PCR products were purified with S-400 HR microspin columns (Pharmacia).

HepG2 cells [2] = assay: Dot blot array expression assay; conditions: for Number of 27 unconfirmed or non-matching clones showing an expression change: two-fold threshold
Experimental: The quality of the PCR reactions was assessed by agarose gel electrophoresis. Human genomic DNA (Clontech) and PCR products were robotically dotted in 100 nl aliquots onto positively-charged nylon membranes using the BioDot instrument (Cartesian Technologies, Inc.). After uv-crosslinking, the membranes were rinsed in 2× SSC and allowed to air-dry. Prior to addition of labeled cDNA probes, membranes were washed in boiling 1% SDS, rinsed with 6× SSC, and incubated in 5 mL of 42° C. Microhyb solution (Research Genetics) for 2 hr. Ten minutes prior to addition of the probes, the Microhyb solution was replaced with an equal amount of fresh 42° C. Microhyb solution containing denatured human Cot-1 DNA (Gibco BRL) and poly(dA) primer (Research Genetics) (both at final concentrations of 1 ng/μl).
For each reverse transcription reaction, 2 μg of mRNA was incubated with oligo(dT) primer (200 ng/μl) at 70° C. for 10 minutes. Tubes were chilled and spun briefly. The following reagents (with the final concentrations in parentheses) were added: first strand buffer (1×), DTT (10 mM), dNTP mix (1 mM each of dATP, dGTP, dTTP), [α-^33P]dCTP (3.3 μCi/μl) and Superscript II Reverse Transcriptase (10 units/μL). The samples were kept at 37° C. for 1.5 hr. Unincorporated nucleotides were removed by spinning the reaction mixture through a G-50 column. […] Probe quality was assessed by electrophoresis on a 10% denaturing polyacrylamide minigel. Denatured probes were added directly to the Microhyb solution and hybridized overnight at 42° C. Membranes were washed twice under each of the following conditions: (1) 2× SSC/0.1% SDS at room temperature, 5 min; (2) 0.2× SSC/0.1% SDS at room temperature, 5 min; (3) 0.2× SSC/0.1% SDS at 42° C., 15 min, (4) 0.1× SSC/0.1% SDS at 68° C., 15 min. Membranes were then rinsed briefly in 2× SSC at room temperature, covered with Saran wrap, and exposed to storage phoshpor screens. After three days, screens were scanned using a Storm phosphorimager (Molecular Dynamics). Images were analyzed using ImageQuant software (Molecular Dynamics).
We employed a rapid dot blot assay as a secondary screen for gene expression changes. We tested each of the unique clones against each of the three treatments. […] For these clones, the dot blot assay functioned not as a confirmation assay but as an initial screen for differential expression. Dot blots were prepared by robotically arraying subclone-derived PCR products in quadruplicate onto positively charged nylon membranes. […] In general, each dot consisted of over 80 ng of PCR product, as estimated by inspection of the PCR reactions run on agarose gels. This high quantity of DNA ensured that saturation of spots, with consequent loss of quantitation, would not occur. Spots of genomic DNA were included on each filter to allow normalization between control and treated sample intensities.

HepG2 cells [3] = assay: Cell morphology after toxicant treatment; conditions: 24 hr, 20 mM acetaminophen, 16 mM caffeine or 100 mM thioacetamide
Experimental: Depending on the desired exposure time, cell treatments began 3 or 4 days after splitting or plating. At this time, the cells were near or at confluency. […] Cell treatments were at 37° C.
The general strategy used for identifying toxicant-induced gene expression changes is outlined in Table 2.

[4] = 24 hr, 20 mM APAP, 16 mM CAF, 100 mM THI

CC(=O)Nc1ccc(O)cc1 [acetaminophen]
Number of difference bands on DD-PCR gel, Decreased (HepG2 cells [1]; acetaminophen 0.02 mM): 0 | Number of difference bands on DD-PCR gel, Increased (HepG2 cells [1]; acetaminophen 0.02 mM): 0 | Number of difference bands on DD-PCR gel, Decreased (HepG2 cells [1]; acetaminophen 0.2 mM): 0 | Number of difference bands on DD-PCR gel, Increased (HepG2 cells [1]; acetaminophen 0.2 mM): 0 | Number of difference bands on DD-PCR gel, Decreased (HepG2 cells [1]; acetaminophen 2 mM): 1 | Number of difference bands on DD-PCR gel, Increased (HepG2 cells [1]; acetaminophen 2 mM): 4 | Number of difference bands on DD-PCR gel, Decreased (HepG2 cells [1]; acetaminophen 20 mM): 16 | Number of difference bands on DD-PCR gel, Increased (HepG2 cells [1]; acetaminophen 20 mM): 18 | Number of 27 unconfirmed or non-matching clones showing an expression change (HepG2 cells [2]; 24 hr): 7

CC(=N)S [thioacetamide]
Fold change, down-regulation: EST (AA283846), clone 90-1 (HepG2 cells [2]; 24 hr treatments): 7.7 fold | Fold change, down-regulation: EST (AA805555), clone 83 (HepG2 cells [2]; 24 hr treatments): 11.1 fold | Fold change, down-regulation: EST (AI310515), clone 32-2 (HepG2 cells [2]; 24 hr treatments): 9.1 fold | Fold change, down-regulation: Lactate dehydrogenase A, clone A24-1 (HepG2 cells [2]; 24 hr treatments): 5.0 fold | Fold change, down-regulation: Pyruvate dehydrogenase E1-beta subunit, clone A123 (HepG2 cells [2]; 24 hr treatments): 12.5 fold | Fold change, down-regulation: Transforming growth factor-beta type III receptor, clone A155-6 (HepG2 cells [2]; 24 hr treatments): 3.0 fold | Fold change, up-regulation: Activating transcription factor 4, clone A108D (HepG2 cells [2]; 24 hr treatments): 3.8 fold | Fold change, up-regulation: EST (N22016), clone AI24-6 (HepG2 cells [2]; 24 hr treatments): up | Fold change, up-regulation: EST, similar to ubiquitin hydrolase, clone A130-3 (HepG2 cells [2]; 24 hr treatments): up | Dot blot expression ratio (treated/control): 90-kDa heat-shock protein, clone 23 (HepG2 cells [2]; [4]): 0.96 n | Dot blot expression ratio (treated/control): ABC transporter, clone 31-4 (HepG2 cells [2]; [4]): 0.28 | Dot blot expression ratio (treated/control): AH antigen, clone A136-1 (HepG2 cells [2]; [4]): 0.00 | Dot blot expression ratio (treated/control): Activating transcription factor 4, clone A108D (HepG2 cells [2]; [4]): 3.77 | Dot blot expression ratio (treated/control): Apolipoprotein B-100, clone A124-1 (HepG2 cells [2]; [4]): 0.76 | Dot blot expression ratio (treated/control): Atopy related autoantigen CALC, clone A182-1 (HepG2 cells [2]; [4]): 0.66 | Dot blot expression ratio (treated/control): Centromere protein E (CENPE), clone A187-5 (HepG2 cells [2]; [4]): 0.65 | Dot blot expression ratio (treated/control): Centromere protein F (400 kD) (CENPF kinetochore protein), clone A136 (HepG2 cells [2]; [4]): 1.98 | Dot blot expression ratio (treated/control): Cu/Zn superoxide dismutase (SOD), clone A94-4 (HepG2 cells [2]; [4]): 0.91 | Dot blot expression ratio (treated/control): DB1, clone A176-3 (HepG2 cells [2]; [4]): 0.36 | Dot blot expression ratio (treated/control): DNA topoisomerase II binding protein, clone A172 (HepG2 cells [2]; [4]): 0.49 | Dot blot expression ratio (treated/control): E1B 19K/Bcl-2-binding protein Nip3, clone 81-6 (HepG2 cells [2]; [4]): 0.23 c | Dot blot expression ratio (treated/control): EST (AA283846), clone 90-1 (HepG2 cells [2]; [4]): 0.13 c | Dot blot expression ratio (treated/control): EST (AA430551), clone A160-5 (HepG2 cells [2]; [4]): 0.17 | Dot blot expression ratio (treated/control): EST (AA581887), clone 102-2 (HepG2 cells [2]; [4]): 1.80 n | Dot blot expression ratio (treated/control): EST (AA581887), clone A102-1 (HepG2 cells [2]; [4]): 1.78 n | Dot blot expression ratio (treated/control): EST (AA805555), clone 83 (HepG2 cells [2]; [4]): 0.09 c | Dot blot expression ratio (treated/control): EST (AC007400), clone A95-1 (HepG2 cells [2]; [4]): 1.07 | Dot blot expression ratio (treated/control): EST (AI049999), clone A104-5 (HepG2 cells [2]; [4]): 0.89 | Dot blot expression ratio (treated/control): EST (AI310515), clone 32-2 (HepG2 cells [2]; [4]): 0.11 c | Dot blot expression ratio (treated/control): EST (N22016), clone A124-6 (HepG2 cells [2]; [4]): up | Dot blot expression ratio (treated/control): EST (N26592), clone 101 (HepG2 cells [2]; [4]): 0.26 c | Dot blot expression ratio (treated/control): EST (N39662), clone A99-1 (HepG2 cells [2]; [4]): 0.50 | Dot blot expression ratio (treated/control): EST (W44772), clone 87 (HepG2 cells [2]; [4]): 1.11 n | Dot blot expression ratio (treated/control): EST, bithoraxoid-like protein, clone A183-1 (HepG2 cells [2]; [4]): 0.42 | Dot blot expression ratio (treated/control): EST, similar to Long-chain acyl-coenzyme A synthetase, clone A105-7 (HepG2 cells [2]; [4]): 0.90 | Dot blot expression ratio (treated/control): EST, similar to Ubiquinol cytochrome C reductase core protein 2, clone 93 (HepG2 cells [2]; [4]): 0.38 c | Dot blot expression ratio (treated/control): EST, similar to arachidonate 15-lipoxygenase, clone 84 (HepG2 cells [2]; [4]): 0.75 n | Dot blot expression ratio (treated/control): EST, similar to ubiquitin hydrolase, clone A130-3 (HepG2 cells [2]; [4]): up | Dot blot expression ratio (treated/control): Esterase D/formylglutathione hydrolase, clone 24 (HepG2 cells [2]; [4]): 0.31 c | Dot blot expression ratio (treated/control): G1 to S phasetransition 1 (GSPT1), clone 103-2 (HepG2 cells [2]; [4]): 1.57 n | Dot blot expression ratio (treated/control): Glucose transporter pseudogene, clone 23-1 (HepG2 cells [2]; [4]): 0.34 | Dot blot expression ratio (treated/control): High mobility group 2 protein (HMG-2), clone A111-8 (HepG2 cells [2]; [4]): 1.12 | Dot blot expression ratio (treated/control): Human Alu-Sc subfamily consensus sequence, clone A96-4 (HepG2 cells [2]; [4]): 0.84 | Dot blot expression ratio (treated/control): Human transposon-like element mRNA, clone A135-3 (HepG2 cells [2]; [4]): 0.59 | Dot blot expression ratio (treated/control): Interleukin 6 signal transducer (gp130, oncostatin M receptor), clone 65-1 (HepG2 cells [2]; [4]): 0.96 n | Dot blot expression ratio (treated/control): Ku autoimmune antigen, clone 27-2 (HepG2 cells [2]; [4]): 0.47 c | Dot blot expression ratio (treated/control): Lactate dehydrogenase A, clone A24-1 (HepG2 cells [2]; [4]): 0.20 c | Dot blot expression ratio (treated/control): Lipoprotein-associated coagulation inhibitor, clone A94-3 (HepG2 cells [2]; [4]): 0.27 c | Dot blot expression ratio (treated/control): Liver microsomal UDP-glucuronosyltransferase (UDPGT), clone A128-7 (HepG2 cells [2]; [4]): 0.70 | Dot blot expression ratio (treated/control): Lsm5 protein, clone A115-5 (HepG2 cells [2]; [4]): 0.39 | Dot blot expression ratio (treated/control): MEGF9, clone 74 (HepG2 cells [2]; [4]): 0.96 n | Dot blot expression ratio (treated/control): Myristoyl CoA:protein N-myristoyltransferase, clone 82 (HepG2 cells [2]; [4]): 0.41 | Dot blot expression ratio (treated/control): NADH dehydrogenase subunit 2, clone A131-1 (HepG2 cells [2]; [4]): 1.45 | Dot blot expression ratio (treated/control): Nucleosome assembly protein 1-1ike 1 (NAP1L1), clone 20-2 (HepG2 cells [2]; [4]): 0.92 n | Dot blot expression ratio (treated/control): PPP1R5 gene, clone 30-5 (HepG2 cells [2]; [4]): 0.17 c | Dot blot expression ratio (treated/control): T-complex polypeptide 1, clone 21-2 (HepG2 cells [2]; [4]): 1.03 | Dot blot expression ratio (treated/control): Transforming growth factor-beta type III receptor, clone A155-6 (HepG2 cells [2]; [4]): 0.33 | Dot blot expression ratio (treated/control): cAMP-responsive enhancer binding protein, alt. spliced (CREB327), clone 98 (HepG2 cells [2]; [4]): 0.70 n | Dot blot expression ratio (treated/control): procollagen-lysine 2-oxoglutarate 5-dioxygenase 2, clone A185 (HepG2 cells [2]; [4]): 0.36 | Dot blot expression ratio (treated/control): pyruvate dehydrogenase El-beta subunit, clone A123 (HepG2 cells [2]; [4]): 0.08 | Number of 27 unconfirmed or non-matching clones showing an expression change (HepG2 cells [2]; 24 hr): 9 | Cell morphology of treated cells (HepG2 cells [3]): somewhat dense and grainy
